Measurements reported in US8263606B2 (Xenon Pharmaceuticals Inc., priority 2008, dated 2012).

Tests used:
sodium channel = experiment: Guanidine influx assay (14C-guanidine radiotracer flux, in vitro); format: cell-based, human or rat; conditions: guanidine influx assay using a known cell line that expresses a sodium channel
In short: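 Sodium channel block is measured as reduced 14C-guanidine uptake in cells stably expressing human or rat channels, stimulated with aconitine. Potency is given as IC50 from a four-parameter curve.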

CYP3A4 = CYP3A4 (Homo sapiens, UniProt P08684); experiment: Cytochrome P450 (CYP450) Inhibition Assay, CYP3A4 (Vivid fluorescence, BOMCC substrate); conditions: human, P450 Baculosomes (recombinant CYP3A4), probe BOMCC (Vivid substrate)
CYP3A4, sequence (P08684 whole entry): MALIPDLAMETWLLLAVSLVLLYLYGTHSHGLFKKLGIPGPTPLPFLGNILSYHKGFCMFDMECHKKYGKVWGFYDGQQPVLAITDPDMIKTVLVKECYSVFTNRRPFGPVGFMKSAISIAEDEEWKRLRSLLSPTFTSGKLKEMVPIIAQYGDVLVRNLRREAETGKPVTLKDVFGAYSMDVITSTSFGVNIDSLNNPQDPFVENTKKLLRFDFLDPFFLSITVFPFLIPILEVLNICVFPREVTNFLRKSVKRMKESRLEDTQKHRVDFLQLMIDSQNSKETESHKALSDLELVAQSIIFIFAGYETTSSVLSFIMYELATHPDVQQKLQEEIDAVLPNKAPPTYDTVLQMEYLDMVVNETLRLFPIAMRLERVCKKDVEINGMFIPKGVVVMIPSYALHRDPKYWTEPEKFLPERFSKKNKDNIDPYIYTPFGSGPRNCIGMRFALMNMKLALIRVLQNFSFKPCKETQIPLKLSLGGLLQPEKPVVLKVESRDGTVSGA

| Structure (SMILES) | IC50 (sodium channel) [nM] | melting point [°C] | inhibition at 10 µM (CYP3A4) [%] |
| --- | --- | --- | --- |
| O=C1N(Cc2ccccn2)c2ccc3ncsc3c2C12COc1cc3c(cc12)OCCO3 (stereo not drawn) [Example 9.72, 6′-(pyridin-2-ylmethyl)-2,3-dihydrospiro[furo[2,3-g][1,4]-benzodioxine-8,8′-[1,3]thiazolo[5,4-e]indol]-7′(6′H)-one] | 100 to 1000 | 156 to 158 | > 50 |
| COCCOCCN1C(=O)C2(COc3cc4c(cc32)OCCO4)c2c(OC)cc(OC)cc21 (stereo not drawn) [Example 9.73, 4′,6′-dimethoxy-1′-[2-(2-methoxyethoxy)ethyl]-2,3-dihydrospiro[furo[2,3-g][1,4]benzodioxine-8,3′-indol]-2′(1′H)-one] | 1000 to 10000 | 158 to 160 | > 50 |
| COc1cc(OC)c2c(c1)N(Cc1ccccn1)C(=O)C21COc2cc3c(cc21)OCCO3 (stereo not drawn) [Example 9.74, 4′,6′-dimethoxy-1′-(pyridin-2-ylmethyl)-2,3-dihydrospiro[furo[2,3-g][1,4]benzodioxine-8,3′-indol]-2′(1′H)-one] | 100 to 1000 | 187 to 188 | > 50 |
| CN(C)c1ncc(CN2C(=O)C3(COc4cc5c(cc43)OCO5)c3ccccc32)s1 (stereo not drawn) [Example 11.1, 1′-{[2-(dimethylamino)-1,3-thiazol-5-yl]methyl}spiro[furo[2,3-f][1,3]benzodioxole-7,3′-indol]-2′(1′H)-one] | 1 to 100 | 200 to 202 | > 50 |
| O=C1N(Cc2cnc(N3CCOCC3)s2)c2ccccc2C12COc1cc3c(cc12)OCO3 (stereo not drawn) [Example 11.2, 1′-[(2-morpholin-4-yl-1,3-thiazol-5-yl)methyl]spiro[furo[2,3-f][1,3]benzodioxole-7,3′-indol]-2′(1′H)-one] | 100 to 1000 | 97 to 99 | > 50 |
| O=C1N(Cc2cnc(N3CCCCC3)s2)c2ccccc2C12COc1cc3c(cc12)OCO3 (stereo not drawn) [Example 11.3, 1′-[(2-piperidin-1-yl-1,3-thiazol-5-yl)methyl]spiro[furo[2,3-f][1,3]benzodioxole-7,3′-indol]-2′(1′H)-one] | 100 to 1000 | 195 to 197 | > 50 |
| O=C1N(CCc2noc(C(F)(F)F)n2)c2ccccc2C12COc1cc3c(cc12)OCO3 (stereo not drawn) [Example 11.18, 1′-{2-[5-(trifluoromethyl)-1,2,4-oxadiazol-3-yl]ethyl}spiro[furo[2,3-f][1,3]benzodioxole-7,3′-indol]-2′(1′H)-one] | 1 to 100 | 45 to 48 | > 50 |
| O=C1N(Cc2noc(C(F)(F)F)n2)c2cccc(Cl)c2C12COc1cc3c(cc12)OCO3 (stereo not drawn) [Example 11.19, 4′-chloro-1′-{[5-(trifluoromethyl)-1,2,4-oxadiazol-3-yl]methyl}spiro[furo[2,3-f][1,3]benzodioxole-7,3′-indol]-2′(1′H)-one] | 1 to 100 | 138 to 140 | > 50 |
| O=C1N(Cc2noc(C3CC3)n2)c2cccc(Cl)c2C12COc1cc3c(cc12)OCO3 (stereo not drawn) [Example 11.20, 4′-chloro-1′-[(5-cyclopropyl-1,2,4-oxadiazol-3-yl)methyl]spiro[furo[2,3-f][1,3]benzodioxole-7,3′-indol]-2′(1′H)-one] | 1 to 100 | 180 to 182 | > 50 |
| O=C1N(Cc2noc(C(F)F)n2)c2cccc(Cl)c2C12COc1cc3c(cc12)OCO3 (stereo not drawn) [Example 11.21] | 1 to 100 | 179 to 182 | > 50 |
| CC(C)(C)c1nc(CN2C(=O)C3(COc4cc5c(cc43)OCO5)c3ccccc32)no1 (stereo not drawn) [Example 11.23, 1′-[(5-tert-butyl-1,2,4-oxadiazol-3-yl)methyl]spiro[furo[2,3-f][1,3]benzodioxole-7,3′-indol]-2′(1′H)-one] | 1 to 100 | 183 to 185 | > 50 |
| CC(C)c1nc(CN2C(=O)C3(COc4cc5c(cc43)OCO5)c3c(Cl)cccc32)no1 (stereo not drawn) [Example 11.25, 4′-chloro-1′-{[5-(1-methylethyl)-1,2,4-oxadiazol-3-yl]methyl}spiro[furo[2,3-f][1,3]benzodioxole-7,3′-indol]-2′(1′H)-one] | 1 to 100 | 165 to 167 | > 50 |
| CC(C)c1nc(CN2C(=O)C3(COc4cc5c(cc43)OCO5)c3ccccc32)no1 (stereo not drawn) [Example 11.26, 1′-{[5-(1-methylethyl)-1,2,4-oxadiazol-3-yl]methyl}spiro[furo[2,3-f][1,3]benzodioxole-7,3′-indol]-2′(1′H)-one] | 1 to 100 | 196 to 199 | > 50 |
| Nc1cccc2c1C1(COc3cc4c(cc31)CCO4)C(=O)N2C[C@H]1CCCO1 (stereo partly drawn) [Example 11.39, 4′-amino-1′-[(2R)-tetrahydrofuran-2-ylmethyl]-5,6-dihydrospiro[benzo[1,2-b:5,4-b′]difuran-3,3′-indol]-2′(1′H)-one] | 100 to 1000 | 190 to 192 | > 50 |
| Nc1ccc2c(c1)OCC21C(=O)N(C[C@H]2CCCO2)c2ccccc21 (stereo partly drawn) [Example 11.47, 6-amino-1′-[(2R)-tetrahydrofuran-2-ylmethyl]spiro[1-benzofuran-3,3′-indol]-2′(1′H)-one] | 1000 to 10000 | 71 to 74 | > 50 |
| CC(C)CCN1C(=O)C2(COc3cc(O)ccc32)c2ccccc21 (stereo not drawn) [Example 11.49, 6-hydroxy-1′-(3-methylbutyl)spiro[1-benzofuran-3,3′-indol]-2′(1′H)-one] | 1 to 100 | 101 to 103 | > 50 |

Now from value to compound:

| IC50 (sodium channel) [nM] | melting point [°C] | inhibition at 10 µM (CYP3A4) [%] | Structure (SMILES) |
| --- | --- | --- | --- |
| 100 to 1000 | 187 to 189 | > 50 | O=C1N(Cc2ccnnc2)c2ccccc2C12COc1cc3c(cc12)CCO3 (stereo not drawn) [Example 10, 1-(pyridazin-4-ylmethyl)-5,6-dihydrospiro[benzo[1,2-b:5,4-b′]difuran-3,3′-indol]-2′(1′H)-one] |
| 1 to 100 | 164 to 166 | > 50 | COc1ncc(CN2C(=O)C3(COc4cc5c(cc43)OCO5)c3ccccc32)s1 (stereo not drawn) [Example 11.4, 1′-[(2-methoxy-1,3-thiazol-5-yl)methyl]spiro[furo[2,3-f][1,3]benzodioxole-7,3′-indol]-2′(1′H)-one] |
| ≥ 10000 | 155 to 158 | > 50 | CN1CCC(CN2C(=O)C3(COc4cc5c(cc43)CCO5)c3ccccc32)CC1 (stereo not drawn) [Example 11.10, 1′-[(1-methylpiperidin-4-yl)methyl]-5,6-dihydrospiro[benzo[1,2-b:5,4-b′]difuran-3,3′-indol]-2′(1′H)-one] |
| 1000 to 10000 | > 250 | < 50 | O=C(O)c1cccc(CN2C(=O)C3(COc4cc5c(cc43)CCO5)c3ccccc32)c1 (stereo not drawn) [Example 11.12, 3-[(2′-oxo-5,6-dihydrospiro[benzo[1,2-b:5,4-b′]difuran-3,3′-indol]-1′(2′H)-yl)methyl]benzoic acid] |
| 100 to 1000 | 178 to 179 | < 50 | O=C1N(Cc2ccc(-c3noc(C(F)(F)F)n3)cc2)c2ccccc2C12COc1cc3c(cc12)CCO3 (stereo not drawn) [Example 11.13, 1′-{4-[5-(trifluoromethyl)-1,2,4-oxadiazol-3-yl]benzyl}-5,6-dihydrospiro[benzo[1,2-b:5,4-b′]difuran-3,3′-indol]-2′(1′H)-one] |
| 1 to 100 | 137 to 139 | > 50 | O=C1N(Cc2noc(C(F)F)n2)c2ccccc2C12COc1cc3c(cc12)OCO3 (stereo not drawn) [Example 11.22, 1-{[5-(difluoromethyl)-1,2,4-oxadiazol-3-yl]methyl}spiro[furo[2,3-f][1,3]benzodioxole-7,3′-indol]-2′(1′H)-one] |
| 1 to 100 | 136 to 137 | > 50 | O=C1N(Cc2noc(C3CC3)n2)c2ccccc2C12COc1cc3c(cc12)OCO3 (stereo not drawn) [Example 11.24, 1′-[(5-cyclopropyl-1,2,4-oxadiazol-3-yl)methyl]spiro[furo[2,3-f][1,3]benzodioxole-7,3′-indol]-2′(1′H)-one] |
| 100 to 1000 | 182 to 188 | > 50 | O=C1N(Cc2cccc(-c3noc(C(F)(F)F)n3)c2)c2ccccc2C12COc1cc3c(cc12)CCO3 (stereo not drawn) [Example 11.28, 1′-{3-[5-(trifluoromethyl)-1,2,4-oxadiazol-3-yl]benzyl}-5,6-dihydrospiro[benzo[1,2-b:5,4-b′]difuran-3,3′-indol]-2′(1′H)-one] |
| 100 to 1000 | 169 to 180 | > 50 | Cc1nnc(-c2ccc(CN3C(=O)C4(COc5cc6c(cc54)CCO6)c4ccccc43)cc2)[nH]1 (stereo not drawn) [Example 11.29, 1′-[4(5-methyl-4H-1,2,4-triazol-3-yl)benzyl]-5,6-dihydrospiro[benzo[1,2-b:5,4-b′]difuran-3,3′-indol]-2′(1′H)-one] |
| 100 to 1000 | 54 to 56 | < 50 | O=C1N(CCCO)c2ccccc2C12COc1cc3c(cc12)CCO3 (stereo not drawn) [Example 11.34, 1′-(3-hydroxypropyl)-5,6-dihydrospiro[benzo[1,2-b:5,4-b′]difuran-3,3′-indol]-2′(1′H)-one] |
| 100 to 1000 | 187 to 190 | < 50 | CN1C(=O)C2(COc3cc4c(cc32)CCO4)c2ccccc21 (stereo not drawn) [Example 11.43, 1′-methyl-5,6-dihydrospiro[benzo[1,2-b:5,4-b′]difuran-3,3′-indol]-2′(1′H)-one] |
| 100 to 1000 | 225 to 227 | > 50 | O=C1N(Cc2cccc(O)c2)c2ccccc2C12COc1cc3c(cc12)CCO3 (stereo not drawn) [Example 11.45, 1′-(3-hydroxybenzyl)-5,6-dihydrospiro[benzo[1,2-b:5,4-b′]difuran-3,3′-indol]-2′(1′H)-one] |
